For one assay, the system named is male Wistar rats. Kind of assay: Spontaneous home cage activity and body temperature measured by radiotelemetry. It is filed as in vivo, rat. The following applies: oral administration, home cage activity by telemetry. The text has this:
In Vivo Assay: Spontaneous Home Cage Activity and Body Temperature Measured by Radiotelemetry in Laboratory Rats:
The objective of the present test is to record the circadian behavioral activity of rats after oral administration of a compound according to general formula (I) of the invention.
Decreased home cage activity measured by telemetry in male Wistar rats was considered as an indication for sleep-inducing potential of a restricted number of highly optimized 1,2,3,4-tetrahydroisoquinoline derivatives.
Psychotropic drugs such as antidepressants, antipsychotics, sleep inducers or psychostimulants are well known to reduce or enhance home cage activity and body temperature following oral administration to laboratory animals. Thermoregulation is a complex process that contributes to homeostasis by coordinating metabolism, energy balance and behaviour. Body temperature changes with circadian behavioural activity and increases when locomotion increases. These two parameters were measured by telemetry in conscious freely moving Wistar rats. Anaesthetized animals were implanted, under aseptic conditions, with a body temperature/activity telemetric device into the peritoneal cavity. More than two weeks after the implantation of the telemetry system, data were collected at 5 minutes intervals during 96 hours. Hourly means were calculated for each rat. The first 48 h were used as an internal control trace and drug effects were compared to vehicle placebo. This method is validated pharmacologically by measuring amplitude and time course of both hypoactivity and hypothermia induced by GABA-A receptor modulators such as zolpidem.

The target in the next assay is T1, CYP3A4 (Homo sapiens, UniProt P08684).
T1 construct: performed using human liver microsomes (pool of 10 individuals); from tissue; host or cells: human liver microsomes, pool of 10 individuals
The assay can be described thus: Inhibitory potency against CYPs in human liver microsomes. It is filed as in vitro ADME. The following applies: human liver microsomes 0.25 mg/ml, midazolam (5 μM) 1'-hydroxylation, 5 min. As for the experimental part:
Measurements of the Inhibitory Potency Against Different CYPs:
The CYP inhibition studies are performed using human liver microsomes (pool of 10 individuals), literature-established CYP isoform-selective substrates and quantification by either LC-MS/MS (for CYP3A4 and CYP2C9) or conventional HPLC with fluorimetric detection (for CYP2D6). The specific probes were midazolam 1′-hydroxylation for CYP3A4, dextromethorphan 3-hydroxylation for CYP2D6 and diclofenac 4′-hydroxylation for CYP2C9. […] Controls (sulfaphenazole for CYP2C9, fluoxetine for CYP2D6, and nicardipine for CYP3A4) were run in parallel in each plate.
Background: Liver microsomes are a subcellular fraction often used to study metabolism.

T1 sequence (P08684 whole entry): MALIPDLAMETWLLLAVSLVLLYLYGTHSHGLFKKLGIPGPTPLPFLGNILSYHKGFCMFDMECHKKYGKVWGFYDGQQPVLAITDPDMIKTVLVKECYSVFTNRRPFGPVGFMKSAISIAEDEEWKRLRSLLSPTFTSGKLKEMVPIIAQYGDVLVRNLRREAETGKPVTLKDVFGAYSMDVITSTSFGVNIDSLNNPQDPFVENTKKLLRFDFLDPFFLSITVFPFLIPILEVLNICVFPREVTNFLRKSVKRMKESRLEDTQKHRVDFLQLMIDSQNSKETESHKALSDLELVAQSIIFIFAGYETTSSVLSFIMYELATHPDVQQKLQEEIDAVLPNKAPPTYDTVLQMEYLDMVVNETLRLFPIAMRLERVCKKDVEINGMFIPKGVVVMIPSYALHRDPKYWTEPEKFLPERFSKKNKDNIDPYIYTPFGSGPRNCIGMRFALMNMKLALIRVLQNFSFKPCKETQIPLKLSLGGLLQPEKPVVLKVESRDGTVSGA

With `CNC(=O)C(c1ccccc1)N1CCc2cc(OC)c(OC)cc2C1CCc1ccc(C(F)(F)F)cc1` (mixture of isomers) [Example 1, 2-{6,7-dimethoxy-1-[2-(4-trifluoromethyl-phenyl)-ethyl]-3,4-dihydro-1H-isoquinolin-2-yl}-N-methyl-2-phenyl-acetamide], the p.o activity result in the assay with male Wistar rats is “yes”.

On to `CNC(=O)[C@@H](c1ccccc1)N1CCc2cc(OC)c(OC)cc2[C@@H]1CCc1ccc(C(F)(F)F)cc1` [Example 2, (2R)-2-{(1S)-6,7-dimethoxy-1-[2-(4-trifluoromethyl-phenyl)-ethyl]-3,4-dihydro-1H-isoquinolin-2-yl}-N-methyl-2-phenyl-acetamide], for which the p.o activity result with male Wistar rats is recorded as “yes”.

What is called IC50 is the concentration at which inhibition is half-maximal. A high value points to weaker potency. The molecule `CNC(=O)C(c1ccccc1)N1CCc2cc(OC)c(OC)cc2C1CCc1ccc(C(F)(F)F)nc1` (stereo not drawn) [Example 3, 2-{6,7-dimethoxy-1-[2-(6-trifluoromethyl-pyridin-3-yl)-ethyl]-3,4-dihydro-1H-isoquinolin-2-yl}-N-methyl-2-phenyl-acetamide] displayed a 50% inhibitory concentration (IC50) against CYP3A4 of 18 µM. The p.o activity result with male Wistar rats is recorded as “yes”.

For `CNC(=O)[C@@H](c1ccccc1)N1CCc2cc(OC)c(OC)cc2[C@@H]1CCc1ccc(C(F)(F)F)nc1` [Example 4, (2R)-2-{(1S)-6,7-dimethoxy-1-[2-(6-trifluoromethyl-pyridin-3-yl)-ethyl]-3,4-dihydro-1H-isoquinolin-2-yl}-N-methyl-2-phenyl-acetamide], the IC50 at CYP3A4 turned out to be 50 µM. For the same molecule, the p.o activity entry with male Wistar rats is “yes”.

(Values after patent publication US7763638B2, “Substituted 1,2,3,4-tetrahydroisoquinoline derivatives” (Actelion Pharmaceuticals Ltd., priority 2004, dated 2010).)
